Assay [1] concerns the target T1, hMDH2 (Homo sapiens, UniProt P40926).
T1 sequence (P40926 25-338): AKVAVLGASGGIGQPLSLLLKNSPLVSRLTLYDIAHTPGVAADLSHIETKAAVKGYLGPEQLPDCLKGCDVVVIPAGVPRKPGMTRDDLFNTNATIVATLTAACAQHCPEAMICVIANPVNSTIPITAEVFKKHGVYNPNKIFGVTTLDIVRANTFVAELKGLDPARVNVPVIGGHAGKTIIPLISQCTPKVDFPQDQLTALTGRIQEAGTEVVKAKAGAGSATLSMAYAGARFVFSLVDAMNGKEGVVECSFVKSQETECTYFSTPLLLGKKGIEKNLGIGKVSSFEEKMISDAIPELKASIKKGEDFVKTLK
The experiment in a line: NADH oxidation at […] nm. It is filed as biochemical. The note with it: read-out: % of control activity remaining at 10.0 mM.

Assay [2] deals with T2, hMDH2 (Homo sapiens, UniProt P40926, H131W).
T2 sequence (P40926 25-338 H131W): T1 sequence (P40926 25-338) with H107W
It is filed as binding.

Assay [3] addresses T2, hMDH2. It is filed as binding. The source holds these as a separate data set.
Assay [4] has as its target T1, hMDH2. Put plainly: NADH oxidation at […] nm. It counts as biochemical. To be noted: read-out: % inhibition at 10.0 mM.

These results are taken from article doi:10.1101/2025.07.15.665002v1 (biorxiv, 2025).

Where a chain is given by its changes, count along the chain named. Read-outs that look alike come from different tables or passages of the source.

Take `O=C(O)CC(O)(CC(=O)O)C(=O)O` [citrate]: the remaining activity at 10000 µM at hMDH2 [1] was found to be 31%. For `Nc1ncnc2c1ncn2[C@@H]1O[C@H](COP(=O)(O)OP(=O)(O)O)[C@@H](O)[C@H]1O` [ADP], at hMDH2 [1], the remaining activity at 10000 µM came to 18.7%. At hMDH2 [2], this compound showed a Kd of 3.77 ± 0.27 mM. `NC(=O)c1ccc[n+]([C@@H]2O[C@H](COP(=O)(O)OP(=O)(O)OC[C@H]3O[C@@H](n4cnc5c(N)ncnc54)[C@H](O)[C@@H]3O)[C@@H](O)[C@H]2O)c1` [NAD^+]: on hMDH2 [1], the remaining activity at 10000 µM came out at 13.2%. The Kd on hMDH2 [2] came to 1.02 ± 0.039 mM. As to `O=C(O)CCC(=O)C(=O)O` [α-ketoglutarate], the Kd on hMDH2 [3] worked out at 10.4 ± 1.45 mM. At hMDH2 [4], the inhibition at 10000 µM worked out at 51.7%. For `Nc1ncnc2c1ncn2[C@@H]1O[C@H](COP(=O)(O)OP(=O)(O)OP(=O)(O)O)[C@@H](O)[C@H]1O` [ATP], the remaining activity at 10000 µM at hMDH2 [1] was found to be 29.1%. Also, the Kd at hMDH2 [2] was determined as 9.63 ± 0.68 mM.
